These results are taken from US20090088466A1, “OPIOID RECEPTOR LIGANDS” (priority 2005, published 2009).

The subject of series [1] is formalin-induced nociceptive responses. The conditions noted are these: similar testing conditions (literature); cited from earlier work.
The target in series [2] is T1, mouse μOR-YFP (Mus musculus, UniProt P42866).
T1 construct: expressed in transfected cells; host or cells: HEK-293 (transient; GRK2 co-transfected in panel C)
The series is described as follows: Agonist-induced internalization of μOR-YFP in HEK-293 cells. It counts as cell-based.

The target in series [3] is T2, HA-μOR (Mus musculus, UniProt P42866).
T2 construct: expressed in transfected cells; host or cells: HEK-293 (transient)
The series can be described thus: Agonist-induced βarr2-GFP translocation to μOR in HEK-293 cells. It counts as cell-based.

Series [4] deals with T3, HA-N-terminus tagged μOR (Mus musculus, UniProt P42866).
T3 construct: expressed in transfected cells
The series can be described thus: Immunofluorescence of cell surface receptors. It counts as cell-based. The conditions noted are these: intact nonpermeabilized HEK-293 cells; drug treatment over 2 hours.

Series [5] addresses T4, HA-tagged mu opioid receptor (Mus musculus, UniProt P42866).
T4 construct: expressed in transfected cells
The series is described as follows: Immunoprecipitation / μOR phosphorylation at serine 375. Particulars: HEK-293 cells stably expressing HA-tagged μOR; 10 μM, 10 min. It counts as cell-based.

Series [6] concerns the target δOR (Homo sapiens, UniProt P41143). Particulars: CHO cells stably expressing each receptor type; cited from earlier work.
The target of series [7] is T5, μOR1-D splice variant of the mouse μOR (Mus musculus, UniProt P42866).
T5 construct: expressed in transfected cells; host or cells: HEK-293 (transient)
The series can be described thus: Agonist-induced μOR1-D-GFP internalization. It counts as cell-based. The conditions noted are these: HEK-293 transiently transfected with μOR1-D-GFP.

Series [8] relates to formalin-induced nociceptive responses. The series is described as follows: Formalin rat paw withdrawal test. It counts as in vivo. The source says: Animals: Male Sprague-Dawley rats (Harlan, Indianapolis, Ind.) weighing 250-275 g were used. Rats were housed one to two per cage with free access to food and water, and maintained on a 12-h light/dark cycle in the Association for the Assessment and Accreditation of Laboratory Animal Care-approved animal care facility. The Institutional Animal Care and Use Committee of The University of Iowa approved all experimental procedures.
Formalin Rat Paw Withdrawal Test: Rats were placed in clear plexiglass testing chambers (30.5×30.5×30.5 cm) and allowed to acclimate for 20 minutes. A mirror was placed at a 45° angle below the floor to allow for an unobstructed view of the rats paws. No restraint was placed on the rats and a HEPA filter was continuously run in order to mask external noise. Following the 20-min acclimation period, animals received a 100 μL injection of either Compound Vb (˜0.04 mg/kg) or vehicle subcutaneously in the paw and were placed back into the testing chamber for 5 minutes (Joshi et al., 2000; Joshi and Gebhart, 2003). Animals were then injected with 100 μL of a 1.25% formalin solution into the plantar surface according to the methods previously described (Dubuisson, D. & Dennis, S. G., […], Pain 4, 161-74; Wheeler-Aceto, H. & Cowan, A., 1991, Psychopharmacology (Berl) 104, 35-44; and Kaneko, M. & Hammond, D. L., 1997, J Pharmacol Exp Ther 282, 928-38). Behavior was observed and tracked for 1 hour and the number of flinches was recorded using a Windows XP-based (Microsoft, Seattle, Wash.) program. Each drug treatment group consisted of 6 rats and no rat was tested more than once. For the antagonist studies, rats were pretreated with either nor-binaltorphimine (nor-BNI) (5 mg/kg, 24 hours prior to agonist) or naloxone (5 mg/kg s.c. 30 min prior to agonist) subcutaneously behind the neck.
Chronic study: Chronic animals were given vehicle or Compound Vb alternating dorsal and plantar surface to avoid sensitization caused from injections at the same site over a 5 day period. Following administration of drug on the fifth day, rats were then administered formalin and observed as described above.

Series [9] has as its target κOR (Homo sapiens, UniProt P41145). Particulars: cited from earlier work.
Series [10] has as its target μOR (Homo sapiens, UniProt P35372). The conditions noted are these: CHO cells stably expressing each receptor type; cited from earlier work.
Series [11] concerns the target T6, hemagglutinin (HA-N-terminus) tagged mouse μOR (Mus musculus, UniProt P42866).
T6 construct: expressed in transfected cells
The series can be described thus: Phospho-ERK1/2 immunoblot assay. It counts as cell-based. On the technique in general: Immunoblotting shows a protein as a band on a membrane.

Setting [12] is: HEK-293 transiently transfected with mouse μOR-YFP.

Sequence of μOR (P35372 whole entry): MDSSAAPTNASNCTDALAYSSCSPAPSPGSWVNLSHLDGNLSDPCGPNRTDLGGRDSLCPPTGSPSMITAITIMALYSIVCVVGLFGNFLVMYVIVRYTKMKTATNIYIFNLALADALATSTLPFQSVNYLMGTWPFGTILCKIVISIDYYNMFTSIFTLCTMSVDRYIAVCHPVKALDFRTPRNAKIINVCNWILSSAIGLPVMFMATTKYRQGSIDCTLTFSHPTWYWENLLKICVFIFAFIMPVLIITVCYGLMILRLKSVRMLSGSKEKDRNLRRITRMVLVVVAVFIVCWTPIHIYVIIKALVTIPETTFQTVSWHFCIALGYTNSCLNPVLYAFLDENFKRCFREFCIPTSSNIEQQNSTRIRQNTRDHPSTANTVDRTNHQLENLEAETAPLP
Sequence of κOR (P41145 whole entry): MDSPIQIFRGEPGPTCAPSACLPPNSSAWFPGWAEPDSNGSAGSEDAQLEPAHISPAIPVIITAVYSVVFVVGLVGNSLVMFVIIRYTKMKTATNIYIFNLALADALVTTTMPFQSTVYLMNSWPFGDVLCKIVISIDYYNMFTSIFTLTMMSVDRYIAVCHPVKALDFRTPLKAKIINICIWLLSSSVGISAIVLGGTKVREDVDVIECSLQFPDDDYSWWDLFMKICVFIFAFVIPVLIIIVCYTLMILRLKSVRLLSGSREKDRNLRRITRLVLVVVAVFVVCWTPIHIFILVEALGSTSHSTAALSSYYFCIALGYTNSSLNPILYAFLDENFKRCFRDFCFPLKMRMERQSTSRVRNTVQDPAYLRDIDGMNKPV
Sequence of δOR (P41143 whole entry, canonical isoform): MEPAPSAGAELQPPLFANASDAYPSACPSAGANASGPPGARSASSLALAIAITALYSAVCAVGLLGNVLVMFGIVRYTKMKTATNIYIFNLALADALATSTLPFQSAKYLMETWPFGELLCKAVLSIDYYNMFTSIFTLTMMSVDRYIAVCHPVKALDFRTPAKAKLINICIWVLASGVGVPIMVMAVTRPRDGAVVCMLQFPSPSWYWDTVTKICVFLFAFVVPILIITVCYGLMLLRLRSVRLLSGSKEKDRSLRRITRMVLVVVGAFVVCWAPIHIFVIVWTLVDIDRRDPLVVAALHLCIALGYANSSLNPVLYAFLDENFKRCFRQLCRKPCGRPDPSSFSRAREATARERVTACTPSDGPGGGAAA

Regarding `COC(=O)[C@@H]1C[C@H](OC(=O)Nc2ccc([N+](=O)[O-])cc2)C(=O)[C@H]2[C@@]1(C)CC[C@H]1C(=O)O[C@H](c3ccoc3)C[C@]21C`, the melting point – broadly, the temperature, or range, at which the solid turns liquid – was in the range of 251 to 253 °C.
For the compound `CN1CC[C@]23c4c5ccc(O)c4O[C@H]2[C@@H](O)C=C[C@H]3[C@H]1C5` [morphine], in series [1], the development of tolerance entry is “produces tolerance”.
Turning to `COC(=O)[C@@H]1C[C@@H](C(=O)CCc2ccccc2)C(=O)[C@@H]2[C@@]3(C)C[C@@H](c4ccoc4)OC(=O)[C@H]3CC[C@]21C`, the melting point lay within 155 to 158 °C.
Still for that read-out and setting: to `COC(=O)[C@@H]1C[C@H](OC(=O)c2cccs2)C(=O)[C@H]2[C@@]1(C)CC[C@H]1C(=O)O[C@H](c3ccoc3)C[C@]21C` belongs 143 to 145 °C; to `COC(=O)[C@@H]1C[C@H](OC(=O)c2cc3ccccc3o2)C(=O)[C@H]2[C@@]1(C)CC[C@H]1C(=O)O[C@H](c3ccoc3)C[C@]21C`, 226 to 227 °C; to `COC(=O)[C@@H]1C[C@H](OC(=O)Cc2ccccc2)C(=O)[C@@H]2[C@@]3(C)C[C@@H](c4ccoc4)OC(=O)[C@H]3CC[C@]21C`, 111 to 114 °C.
Turning to `C[C@@H](NC(=O)[C@@H](N)Cc1ccc(O)cc1)C(=O)NCC(=O)N(C)[C@@H](Cc1ccccc1)C(=O)NCCO` [DAMGO, [D-Ala^2, N-MePhe^4, Gly^5-ol]Enkephalin, reference compound], the μOR-YFP internalization result in [2] (setting [12]) is reported as “Internalization can be seen”. Moreover, in series [3] (HEK-293, 1 μM), the βarr2-GFP translocation result is on record as “leads to βarr2-GFP translocation within 5 min”. Besides, the “loss of cell surface receptors” value in series [4] came to 40%.
`COC(=O)[C@@H]1C[C@H](OC(=O)c2cccc(Br)c2)C(=O)[C@@H]2[C@@]3(C)C[C@@H](c4ccoc4)OC(=O)[C@H]3CC[C@]21C` showed a melting point of 195 to 199 °C.
On to `COC(=O)[C@@H]1C[C@H](OS(=O)(=O)c2ccc(OC)cc2)C(=O)[C@@H]2[C@@]3(C)C[C@@H](c4ccoc4)OC(=O)[C@H]3CC[C@]21C`, for which the melting point was 148 to 149 °C (dec.).
Same read-out and setting: to `COC(=O)[C@@H]1C[C@H](OC(=O)c2ccccc2Br)C(=O)[C@@H]2[C@@]3(C)C[C@@H](c4ccoc4)OC(=O)[C@H]3CC[C@]21C` belongs 189 to 191 °C; to `COC(=O)[C@@H]1C[C@H](OS(=O)(=O)c2ccc(C)cc2)C(=O)[C@@H]2[C@@]3(C)C[C@@H](c4ccoc4)OC(=O)[C@H]3CC[C@]21C`, 163 to 165 °C (dec.).
Take `COC(=O)[C@@H]1C[C@H](OC(=O)c2ccccc2)C(=O)[C@H]2[C@@]1(C)CC[C@H]1C(=O)OC(c3ccoc3)C[C@]21C` (stereo partly shown) [Compound Vb]: in series [5], the “μOR phosphorylation at serine 375” value is listed as “does not promote robust phosphorylation”. Moreover, the “affinity for δOR” value in [6] is “no affinity”. Besides, the μOR1-D internalization entry in series [7] was “fails to internalize this receptor variant”. Further, the μOR-YFP internalization entry is on record as “does not” in series [2] (HEK-293 overexpressing GRK2 (5 μg cDNA)) and “do not induce receptor internalization” in [2] (setting [12]). Besides, the βarr2-GFP translocation result in [3] (HEK-293, 2 μM, 10 min) is “does not induce βarr2-GFP translocation”; in series [3] (HEK-293 overexpressing GRK2, 2 μM, 10 min) it was “does not promote βarr2-GFP translocation”; in series [3] (HEK-293 overexpressing GRK2, 100 μM, 30 min), “does not promote βarr2-GFP translocation”. Further, the “loss of cell surface receptors” value in series [4] is recorded as “maintain the same level of cell surface receptor expression”. Moreover, the “total number of flinches in second phase of formalin test” value in [8] (acute (Day 1) and chronic (Day 5) vs vehicle) is listed as “significantly inhibits formalin-induced flinching compared to vehicle in both treatment paradigms”. In [8] (chronic treatment 5 days), the “antinociception Day 5 vs Day 1” value is “significantly more Compound Vb-induced antinociception than seen on Day 1”. The “antinociception after naloxone pretreatment” value in series [8] (naloxone 5 mg/kg s.c. 30 min prior) is recorded as “reversible by naloxone pretreatment”. In series [8] (nor-BNI 5 mg/kg s.c. 24 hours prior), the “antinociception after nor-BNI pretreatment” value is “did not block Compound Vb's efficacy but rather significantly enhanced it”. For the same compound, the “development of antinociceptive tolerance” value in series [8] (repeated administration, 5 days) is listed as “did not lead to the development of antinociceptive tolerance”. Also, in series [8] (˜0.04 mg/kg s.c. paw, 5 min prior to 1.25% formalin, acute), the “antinociception in formalin paw-withdrawal test” value is listed as “produced significant antinociception in the second phase”. Moreover, in series [9], the “affinity at κOR” value is on record as “retains some affinity”. Moreover, the “affinity for μOR relative to κOR” value in series [10] is reported as “greater affinity for μOR over κOR”. Also, the ERK1/2 phosphorylation result in [11] (HEK-293 cells stably expressing HA-tagged mouse μOR, 10 min stimulation) is on record as “dose dependently activates the Map Kinases, ERK1/2, in a μOR antagonist reversible manner”. The “Compound Vb-induced ERK activation after naloxone pretreatment” value in series [11] (naloxone 10 μM during the 30 min serum starvation) is listed as “blocked”.
In turn, `COC(=O)[C@@H]1C[C@H](OC(=O)c2ccsc2)C(=O)[C@H]2[C@@]1(C)CC[C@H]1C(=O)O[C@H](c3ccoc3)C[C@]21C` had a melting point of 211 to 212 °C.
Still for that read-out and setting: to `COC(=O)[C@@H]1C[C@H](OS(=O)(=O)c2ccccc2)C(=O)[C@@H]2[C@@]3(C)C[C@@H](c4ccoc4)OC(=O)[C@H]3CC[C@]21C` belongs 157 to 159 °C (dec.).
